Laboratory results taken from patent US9884063B2, “Amido-substituted azole compounds” (Bayer Pharma Aktiengesellschaft, priority 2014, dated 2018).

Key:
[1] = target: T1, TNKS2 (Homo sapiens, UniProt Q9H2K2); assay: Modified TNKS2 Assay 3 (BPS kit #80578, biotin-NAD+, 96 well); assay type: biochemical; details: human TNKS2, BPS kit #80578, 96 well
T1 sequence (Q9H2K2 1-1166): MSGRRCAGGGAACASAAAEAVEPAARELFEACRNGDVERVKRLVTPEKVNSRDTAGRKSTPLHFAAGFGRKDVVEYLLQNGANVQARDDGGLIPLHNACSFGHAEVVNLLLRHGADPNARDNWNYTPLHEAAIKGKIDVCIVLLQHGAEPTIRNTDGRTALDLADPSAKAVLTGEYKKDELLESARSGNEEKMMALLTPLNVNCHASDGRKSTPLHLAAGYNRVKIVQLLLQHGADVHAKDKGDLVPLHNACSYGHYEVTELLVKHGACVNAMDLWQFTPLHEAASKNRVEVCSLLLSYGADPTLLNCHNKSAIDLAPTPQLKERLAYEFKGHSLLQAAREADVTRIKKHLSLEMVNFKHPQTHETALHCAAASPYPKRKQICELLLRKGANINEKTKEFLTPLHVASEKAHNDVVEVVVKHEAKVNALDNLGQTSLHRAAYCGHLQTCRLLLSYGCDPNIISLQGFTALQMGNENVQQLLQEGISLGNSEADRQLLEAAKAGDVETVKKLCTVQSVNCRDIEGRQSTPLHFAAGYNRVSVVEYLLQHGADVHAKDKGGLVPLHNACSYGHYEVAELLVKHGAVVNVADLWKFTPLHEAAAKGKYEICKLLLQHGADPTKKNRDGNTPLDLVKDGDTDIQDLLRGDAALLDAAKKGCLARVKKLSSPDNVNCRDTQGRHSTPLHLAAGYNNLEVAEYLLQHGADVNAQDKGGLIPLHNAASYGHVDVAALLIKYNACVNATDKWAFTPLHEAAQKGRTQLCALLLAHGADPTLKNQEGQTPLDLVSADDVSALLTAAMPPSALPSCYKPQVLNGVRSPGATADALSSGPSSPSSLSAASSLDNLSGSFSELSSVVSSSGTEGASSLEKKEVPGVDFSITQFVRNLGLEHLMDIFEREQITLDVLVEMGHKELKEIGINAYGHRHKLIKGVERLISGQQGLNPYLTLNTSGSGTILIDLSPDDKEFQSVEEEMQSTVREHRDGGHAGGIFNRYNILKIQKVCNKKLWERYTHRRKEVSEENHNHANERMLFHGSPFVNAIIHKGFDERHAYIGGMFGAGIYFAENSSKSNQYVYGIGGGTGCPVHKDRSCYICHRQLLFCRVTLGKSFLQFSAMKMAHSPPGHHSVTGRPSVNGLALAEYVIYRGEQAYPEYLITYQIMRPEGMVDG
Description: (§1) The potency of the compounds against human TNKS2 according to the invention was assessed using a commercially available biotin/streptavidin binding assay kits from BPS Bioscience, San Diego, USA (Catalog #80578 for TNKS2). The incorporation of a biotin-labeled NAD+ during the […] catalyzed ribosylation of a suitable protein substrate was detected using with a streptavidin-HRP coupled chemi-luminescent readout. The intensity of the readout signal is proportional to the incorporated NAD^+. Inhibition of TNKS2 leads to a decreased incorporation of NAD^+ and consequently to a lower readout signal intensity in the corresponding TNKS2 assays. The concentration of a test compound that inhibits the enzyme activity by 50% (corresponds to half of the normed readout signal intensity) is reported as IC50. The assay conducted in a 96 well MTP format according to the manufacturer's protocol and using a BMG Pherastar MTP reader [BMG-Labtech, Offenburg, Germany].

[2] = system: wildtype Wnt signaling cascade; assay: HEK293 TOP Assay (Super TopFlash luciferase reporter, Wnt-3a stimulated); assay type: cell-based; details: Homo sapiens, HEK293, 16 h, HEK293 TOP reporter cell line, Wnt-3a at EC50, 16 hours incubation, compound dilution series 50 μM to 15 nM
In short: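 HEK293 cells stably carrying Super TopFlash (TOP) or FOP reporter, stimulated with recombinant human Wnt-3a (2500–5 ng/ml, two-fold steps). Both lines incubated in parallel with compound from 50 μM to 15 nM (3.16-fold) in CAFTY buffer pH 7.4 with 2 mM Ca2+ and 0.01% BSA; selectivity judged TOP vs FOP.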

[3] = target: T2, TNKS1 (Homo sapiens, UniProt O95271); assay: Modified TNKS1 Assay 3 (BPS kit #80573, biotin-NAD+, 96 well); assay type: biochemical; details: human TNKS1, BPS kit #80573, 96 well
T2 sequence (O95271 1-1327): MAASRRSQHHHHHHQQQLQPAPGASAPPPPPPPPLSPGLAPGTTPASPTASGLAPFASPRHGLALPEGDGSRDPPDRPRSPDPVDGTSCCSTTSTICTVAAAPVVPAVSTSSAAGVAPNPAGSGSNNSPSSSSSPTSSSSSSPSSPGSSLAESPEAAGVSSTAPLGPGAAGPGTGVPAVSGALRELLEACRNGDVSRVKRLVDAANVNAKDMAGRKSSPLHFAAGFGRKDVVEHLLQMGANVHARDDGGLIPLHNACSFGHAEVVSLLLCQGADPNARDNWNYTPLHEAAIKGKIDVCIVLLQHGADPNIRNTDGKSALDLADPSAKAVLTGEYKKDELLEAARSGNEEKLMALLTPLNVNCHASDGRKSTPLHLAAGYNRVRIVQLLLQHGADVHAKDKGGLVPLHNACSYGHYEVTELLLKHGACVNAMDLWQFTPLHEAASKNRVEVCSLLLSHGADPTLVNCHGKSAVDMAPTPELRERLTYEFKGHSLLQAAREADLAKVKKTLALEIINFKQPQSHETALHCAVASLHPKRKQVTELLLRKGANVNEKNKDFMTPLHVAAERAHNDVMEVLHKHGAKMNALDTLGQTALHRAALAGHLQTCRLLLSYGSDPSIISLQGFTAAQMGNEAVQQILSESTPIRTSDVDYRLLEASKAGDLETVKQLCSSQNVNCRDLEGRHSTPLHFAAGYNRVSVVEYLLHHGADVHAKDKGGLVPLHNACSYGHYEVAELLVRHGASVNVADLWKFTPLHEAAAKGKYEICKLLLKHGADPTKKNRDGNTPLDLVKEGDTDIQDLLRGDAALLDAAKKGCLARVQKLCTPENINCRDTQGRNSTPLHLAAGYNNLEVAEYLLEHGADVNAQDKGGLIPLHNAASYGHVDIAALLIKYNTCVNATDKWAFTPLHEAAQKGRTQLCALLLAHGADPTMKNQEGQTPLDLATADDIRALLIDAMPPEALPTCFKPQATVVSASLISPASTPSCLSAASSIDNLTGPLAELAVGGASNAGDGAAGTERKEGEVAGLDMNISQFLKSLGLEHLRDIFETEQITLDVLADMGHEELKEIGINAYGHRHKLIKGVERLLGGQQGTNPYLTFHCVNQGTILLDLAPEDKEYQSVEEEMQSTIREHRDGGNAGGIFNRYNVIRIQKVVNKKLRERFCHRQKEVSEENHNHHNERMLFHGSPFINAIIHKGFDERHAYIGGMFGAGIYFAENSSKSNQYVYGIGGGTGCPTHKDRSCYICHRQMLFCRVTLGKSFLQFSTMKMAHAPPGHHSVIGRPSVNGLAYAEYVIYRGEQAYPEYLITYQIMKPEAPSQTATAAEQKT
Description: as §1, with “against human TNKS1 according to” for “against human TNKS2 according to”, “USA (Catalog #80573 for TNKS1).” for “USA (Catalog #80578 for TNKS2).”, “#80573 for TNKS1). The incorporation” for “#80578 for TNKS2). The incorporation”, “Inhibition of TNKS1 leads to” for “Inhibition of TNKS2 leads to”, “the corresponding TNKS1 assays. The” for “the corresponding TNKS2 assays. The”, “The assay was conducted in” for “The assay conducted in”

[4] = system: HEK293 FOP control reporter cell line; assay: HEK293 FOP Assay (FOP control vector luciferase reporter); assay type: cell-based; details: Homo sapiens; HEK293 FOP control reporter cell line, 16 hours incubation, compound dilution series 50 μM to 15 nM
In short: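 Stable HEK293 line carrying the FOP vector (randomized, non-functional TCF sites; Geneticin-selected) was run in parallel with the TOP line. Cells were plated 24 h ahead at 10000/well and given recombinant human Wnt-3a at 2500–5 ng/ml. Compounds were tested at 50 μM–15 nM (3.16-fold steps) in CAFTY buffer, pH 7.4, with 2 mM Ca2+ and 0.01% BSA.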

| SMILES | IC50 [1] | IC50 [2] | IC50 [3] | IC50 [4] |
| --- | --- | --- | --- | --- |
| CC(CNC(=O)c1[nH]cnc1C(=O)Nc1ccc(NC(=O)c2ccc(F)cc2Cl)cc1)N1CCN(C)CC1 (centres unmarked) [Example 185, N^4-{4-[(2-chloro-4-fluorobenzoyl)amino]phenyl}-N^5-[2-(4-methylpiperazin-1-yl)propyl]-1H-imidazole-4,5-dicarboxamide] | 20 nM | 200 nM |  |  |
| CC(C)(CNC(=O)c1[nH]cnc1C(=O)Nc1ccc(NC(=O)c2ccc(F)cc2Cl)cc1)N1CCCCC1 [Example 159, N^4-{4-[(2-chloro-4-fluorobenzoyl)amino]phenyl}-N^5-[2-methyl-2-(piperidin-1-yl)propyl]-1H-imidazole-4,5-dicarboxamide] | 2 nM | 90 nM |  |  |
| CNC(=O)c1nc[nH]c1C(=O)Nc1ccc(NC(=O)c2ccc(F)cc2Cl)c(F)c1 [Example 72, N^5-{4-[(2-chloro-4-fluorobenzoyl)amino]-3-fluorophenyl}-N^4-methyl-1H-imidazole-4,5-dicarboxamide] | 60 nM | 490 nM |  |  |
| O=C(Nc1ccc(NC(=O)c2nc[nH]c2C(=O)NCCN2CCC2)cc1)c1ccc(F)cc1Cl [Example 198, N^5-[2-(azetidin-1-yl)ethyl]-N^4-{4-[(2-chloro-4-fluorobenzoyl)amino]phenyl}-1H-imidazole-4,5-dicarboxamide] | < 0.5 nM | 110 nM |  |  |
| CC(CNC(=O)c1[nH]cnc1C(=O)Nc1ccc(NC(=O)c2ccc(F)cc2Cl)cc1)N1CCCCC1 (centres unmarked) [Example 170, N^4-{4-[(2-chloro-4-fluorobenzoyl)amino]phenyl}-N^5-[2-(piperidin-1-yl)propyl]-1H-imidazole-4,5-dicarboxamide] | 2 nM | 180 nM |  |  |
| CC(CN1CCOCC1)NC(=O)c1[nH]cnc1C(=O)Nc1ccc(NC(=O)c2ccccc2Cl)cc1 (centres unmarked) [Example 162, N^4-{4-[(2-chlorobenzoyl)amino]phenyl}-N^5-[1-(morpholin-4-yl)propan-2-yl]-1H-imidazole-4,5-dicarboxamide] | 20 nM | 270 nM |  |  |
| O=C(Nc1ccc(NC(=O)c2nc[nH]c2C(=O)NCCN2CCC(O)CC2)cc1)c1ccccc1Cl [Example 197, N^4-{4-[(2-chlorobenzoyl)amino]phenyl}-N^5-[2-(4-hydroxypiperidin-1-yl)ethyl]-1H-imidazole-4,5-dicarboxamide] | 1 nM | 140 nM |  |  |
| CN(C)CCCCCNC(=O)c1nc[nH]c1C(=O)Nc1ccc(NC(=O)c2ccc(F)cc2Cl)cc1 [Example 378, N^5-{4-[(2-chloro-4-fluorobenzoyl)amino]phenyl}-N^4-[5-(dimethylamino)pentyl]-1H-imidazole-4,5-dicarboxamide] |  | 230 nM | 60 nM | 27000 nM |
| CN(C)CC(C)(C)CNC(=O)c1nc[nH]c1C(=O)Nc1ccc(NC(=O)c2ccc(F)cc2Cl)cc1 [Example 396, N^5-{4-[(2-chloro-4-fluorobenzoyl)amino]phenyl}-N^4-[3-(dimethylamino)-2,2-dimethylpropyl]-1H-imidazole-4,5-dicarboxamide] |  | 340 nM | 180 nM | 25000 nM |
| O=C(Nc1ccc(NC(=O)c2nc[nH]c2C(=O)NCCCN2CCCCC2)cc1)c1ccc(F)cc1Cl [Example 297, N^4-{4-[(2-chloro-4-fluorobenzoyl)amino]phenyl}-N^5-[3-(piperidin-1-yl)propyl]-1H-imidazole-4,5-dicarboxamide] |  | 1050 nM | > 500 nM | 22500 nM |
| CC1CCCCN1CCCNC(=O)c1nc[nH]c1C(=O)Nc1ccc(NC(=O)c2ccc(F)cc2Cl)cc1 (centres unmarked) [Example 386, N^5-{4-[(2-chloro-4-fluorobenzoyl)amino]phenyl}-N^4-[3-(2-methylpiperidin-1-yl)propyl]-1H-imidazole-4,5-dicarboxamide] |  | 460 nM | 60 nM | 15000 nM |
| O=C(Nc1ccc(NC(=O)c2nc[nH]c2C(=O)NCCN2CCC[C@H](F)C2)cc1)c1ccc(F)cc1Cl [Example 276, N^4-{4-[(2-chloro-4-fluorobenzoyl)amino]phenyl}-N^5-{2-[(3S)-3-fluoropiperidin-1-yl]ethyl}-1H-imidazole-4,5-dicarboxamide] |  | 110 nM | 50 nM | 31000 nM |
